The target of one assay is fACC2 (UniProt Q00955). Nature of the assay: In vitro ACC2 inhibition assay (ADP-Glo), fungal ACC2. It counts as biochemical. Conditions: Table 2b (additional results). The gist of the method: (§1)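 ADP-Glo luminescent ADP detection with 5 nM ACC2, 20 μM ATP, 20 μM acetyl-CoA, 12 mM NaHCO3, 2 mM DTT, 5% DMSO; compound (30 μM-0.00051 μM, 11 points) preincubated 15 min, reaction 60 min at room temperature. Percent inhibition against DMSO and positive controls; IC50 by four-parameter nonlinear fit.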
In general terms: ADP-Glo first removes unused ATP, then detects ADP through luciferase.

The next assay deals with hACC2 (Homo sapiens, UniProt O00763). Nature of the assay: In vitro ACC2 inhibition assay (ADP-Glo), human ACC2. Conditions: Table 2b (additional results). It counts as biochemical. The essentials: as §1
The subject of a further assay is C. krusei ATCC 6258. Nature of the assay: Anti-Fungal (Candida) Activity Assay, broth microtiter MIC. Type of assay: cell-based, Candida krusei. Conditions: Pichia kudriavzevii, ATCC6258, 48 h, Table 3b (additional results); 3 replicates; MIC read at 48 h. The gist of the method: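 Broth microdilution per CLSI M27-A3 in RPMI 1640 + MOPS, at a final inoculum of 2.5×10^3 CFU/mL. Compound DMSO stocks were diluted in water to a 128 μg/mL working solution. MIC was read visually against the growth control at 48 h.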

Each structure is given as a SMILES string. ≈ marks a conversion by molar mass, not a printed value. Some results are limits rather than exact numbers.

fACC2, sequence (Q00955 whole entry): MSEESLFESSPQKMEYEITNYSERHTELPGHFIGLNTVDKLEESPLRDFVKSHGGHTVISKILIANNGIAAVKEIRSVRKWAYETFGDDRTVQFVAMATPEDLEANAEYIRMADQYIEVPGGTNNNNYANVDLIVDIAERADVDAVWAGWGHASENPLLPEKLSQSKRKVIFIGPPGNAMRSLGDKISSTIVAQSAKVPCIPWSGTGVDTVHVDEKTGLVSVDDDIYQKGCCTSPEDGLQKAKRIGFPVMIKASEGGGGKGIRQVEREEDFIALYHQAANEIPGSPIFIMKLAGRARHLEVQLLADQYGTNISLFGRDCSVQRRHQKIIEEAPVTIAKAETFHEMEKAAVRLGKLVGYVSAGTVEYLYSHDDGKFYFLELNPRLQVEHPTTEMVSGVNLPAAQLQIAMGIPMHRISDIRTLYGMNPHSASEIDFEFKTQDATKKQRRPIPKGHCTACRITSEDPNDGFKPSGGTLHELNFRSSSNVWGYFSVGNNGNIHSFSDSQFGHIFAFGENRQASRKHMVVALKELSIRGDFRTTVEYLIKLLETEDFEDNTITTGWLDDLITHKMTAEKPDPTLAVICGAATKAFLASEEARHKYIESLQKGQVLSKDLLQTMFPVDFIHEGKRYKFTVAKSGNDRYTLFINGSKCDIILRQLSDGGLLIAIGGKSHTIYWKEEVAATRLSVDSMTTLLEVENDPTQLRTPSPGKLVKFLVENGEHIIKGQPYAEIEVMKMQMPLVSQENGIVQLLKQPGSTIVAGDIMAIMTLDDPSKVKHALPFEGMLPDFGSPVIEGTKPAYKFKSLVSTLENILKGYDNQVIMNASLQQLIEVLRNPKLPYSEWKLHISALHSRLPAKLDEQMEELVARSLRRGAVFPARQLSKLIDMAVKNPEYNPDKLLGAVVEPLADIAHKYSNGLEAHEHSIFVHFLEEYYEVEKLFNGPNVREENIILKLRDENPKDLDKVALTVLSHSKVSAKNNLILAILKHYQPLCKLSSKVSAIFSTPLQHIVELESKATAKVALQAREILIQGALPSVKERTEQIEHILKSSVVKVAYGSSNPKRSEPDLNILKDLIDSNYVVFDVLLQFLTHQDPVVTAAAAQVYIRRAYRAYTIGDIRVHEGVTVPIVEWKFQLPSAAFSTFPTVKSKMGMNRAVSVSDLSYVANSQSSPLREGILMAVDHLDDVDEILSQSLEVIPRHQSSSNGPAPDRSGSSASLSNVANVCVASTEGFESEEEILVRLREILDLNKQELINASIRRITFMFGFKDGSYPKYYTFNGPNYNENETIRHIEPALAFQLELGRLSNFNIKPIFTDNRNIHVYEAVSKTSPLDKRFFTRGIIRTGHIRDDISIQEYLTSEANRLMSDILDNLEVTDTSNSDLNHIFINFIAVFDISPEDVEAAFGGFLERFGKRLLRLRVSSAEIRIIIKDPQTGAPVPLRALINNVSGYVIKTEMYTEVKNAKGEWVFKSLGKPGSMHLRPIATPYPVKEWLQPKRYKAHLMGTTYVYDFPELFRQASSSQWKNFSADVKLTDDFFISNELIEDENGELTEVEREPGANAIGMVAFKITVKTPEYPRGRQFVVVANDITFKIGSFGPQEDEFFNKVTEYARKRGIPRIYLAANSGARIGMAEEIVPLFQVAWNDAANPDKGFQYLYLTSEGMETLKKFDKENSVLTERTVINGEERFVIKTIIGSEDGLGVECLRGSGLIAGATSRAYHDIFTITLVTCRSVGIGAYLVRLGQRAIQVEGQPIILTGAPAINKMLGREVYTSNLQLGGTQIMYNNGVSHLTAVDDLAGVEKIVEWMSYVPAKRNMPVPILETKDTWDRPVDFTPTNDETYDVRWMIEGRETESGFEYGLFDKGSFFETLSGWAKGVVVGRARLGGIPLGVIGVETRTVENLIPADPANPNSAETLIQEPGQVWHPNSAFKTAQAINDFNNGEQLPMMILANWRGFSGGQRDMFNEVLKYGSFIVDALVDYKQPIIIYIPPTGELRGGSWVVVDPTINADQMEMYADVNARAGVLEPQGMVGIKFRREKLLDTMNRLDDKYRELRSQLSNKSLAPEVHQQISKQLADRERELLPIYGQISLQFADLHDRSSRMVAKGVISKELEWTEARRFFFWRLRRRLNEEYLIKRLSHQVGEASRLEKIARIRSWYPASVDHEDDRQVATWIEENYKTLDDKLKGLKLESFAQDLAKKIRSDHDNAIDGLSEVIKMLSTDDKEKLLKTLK
hACC2, sequence (O00763 whole entry): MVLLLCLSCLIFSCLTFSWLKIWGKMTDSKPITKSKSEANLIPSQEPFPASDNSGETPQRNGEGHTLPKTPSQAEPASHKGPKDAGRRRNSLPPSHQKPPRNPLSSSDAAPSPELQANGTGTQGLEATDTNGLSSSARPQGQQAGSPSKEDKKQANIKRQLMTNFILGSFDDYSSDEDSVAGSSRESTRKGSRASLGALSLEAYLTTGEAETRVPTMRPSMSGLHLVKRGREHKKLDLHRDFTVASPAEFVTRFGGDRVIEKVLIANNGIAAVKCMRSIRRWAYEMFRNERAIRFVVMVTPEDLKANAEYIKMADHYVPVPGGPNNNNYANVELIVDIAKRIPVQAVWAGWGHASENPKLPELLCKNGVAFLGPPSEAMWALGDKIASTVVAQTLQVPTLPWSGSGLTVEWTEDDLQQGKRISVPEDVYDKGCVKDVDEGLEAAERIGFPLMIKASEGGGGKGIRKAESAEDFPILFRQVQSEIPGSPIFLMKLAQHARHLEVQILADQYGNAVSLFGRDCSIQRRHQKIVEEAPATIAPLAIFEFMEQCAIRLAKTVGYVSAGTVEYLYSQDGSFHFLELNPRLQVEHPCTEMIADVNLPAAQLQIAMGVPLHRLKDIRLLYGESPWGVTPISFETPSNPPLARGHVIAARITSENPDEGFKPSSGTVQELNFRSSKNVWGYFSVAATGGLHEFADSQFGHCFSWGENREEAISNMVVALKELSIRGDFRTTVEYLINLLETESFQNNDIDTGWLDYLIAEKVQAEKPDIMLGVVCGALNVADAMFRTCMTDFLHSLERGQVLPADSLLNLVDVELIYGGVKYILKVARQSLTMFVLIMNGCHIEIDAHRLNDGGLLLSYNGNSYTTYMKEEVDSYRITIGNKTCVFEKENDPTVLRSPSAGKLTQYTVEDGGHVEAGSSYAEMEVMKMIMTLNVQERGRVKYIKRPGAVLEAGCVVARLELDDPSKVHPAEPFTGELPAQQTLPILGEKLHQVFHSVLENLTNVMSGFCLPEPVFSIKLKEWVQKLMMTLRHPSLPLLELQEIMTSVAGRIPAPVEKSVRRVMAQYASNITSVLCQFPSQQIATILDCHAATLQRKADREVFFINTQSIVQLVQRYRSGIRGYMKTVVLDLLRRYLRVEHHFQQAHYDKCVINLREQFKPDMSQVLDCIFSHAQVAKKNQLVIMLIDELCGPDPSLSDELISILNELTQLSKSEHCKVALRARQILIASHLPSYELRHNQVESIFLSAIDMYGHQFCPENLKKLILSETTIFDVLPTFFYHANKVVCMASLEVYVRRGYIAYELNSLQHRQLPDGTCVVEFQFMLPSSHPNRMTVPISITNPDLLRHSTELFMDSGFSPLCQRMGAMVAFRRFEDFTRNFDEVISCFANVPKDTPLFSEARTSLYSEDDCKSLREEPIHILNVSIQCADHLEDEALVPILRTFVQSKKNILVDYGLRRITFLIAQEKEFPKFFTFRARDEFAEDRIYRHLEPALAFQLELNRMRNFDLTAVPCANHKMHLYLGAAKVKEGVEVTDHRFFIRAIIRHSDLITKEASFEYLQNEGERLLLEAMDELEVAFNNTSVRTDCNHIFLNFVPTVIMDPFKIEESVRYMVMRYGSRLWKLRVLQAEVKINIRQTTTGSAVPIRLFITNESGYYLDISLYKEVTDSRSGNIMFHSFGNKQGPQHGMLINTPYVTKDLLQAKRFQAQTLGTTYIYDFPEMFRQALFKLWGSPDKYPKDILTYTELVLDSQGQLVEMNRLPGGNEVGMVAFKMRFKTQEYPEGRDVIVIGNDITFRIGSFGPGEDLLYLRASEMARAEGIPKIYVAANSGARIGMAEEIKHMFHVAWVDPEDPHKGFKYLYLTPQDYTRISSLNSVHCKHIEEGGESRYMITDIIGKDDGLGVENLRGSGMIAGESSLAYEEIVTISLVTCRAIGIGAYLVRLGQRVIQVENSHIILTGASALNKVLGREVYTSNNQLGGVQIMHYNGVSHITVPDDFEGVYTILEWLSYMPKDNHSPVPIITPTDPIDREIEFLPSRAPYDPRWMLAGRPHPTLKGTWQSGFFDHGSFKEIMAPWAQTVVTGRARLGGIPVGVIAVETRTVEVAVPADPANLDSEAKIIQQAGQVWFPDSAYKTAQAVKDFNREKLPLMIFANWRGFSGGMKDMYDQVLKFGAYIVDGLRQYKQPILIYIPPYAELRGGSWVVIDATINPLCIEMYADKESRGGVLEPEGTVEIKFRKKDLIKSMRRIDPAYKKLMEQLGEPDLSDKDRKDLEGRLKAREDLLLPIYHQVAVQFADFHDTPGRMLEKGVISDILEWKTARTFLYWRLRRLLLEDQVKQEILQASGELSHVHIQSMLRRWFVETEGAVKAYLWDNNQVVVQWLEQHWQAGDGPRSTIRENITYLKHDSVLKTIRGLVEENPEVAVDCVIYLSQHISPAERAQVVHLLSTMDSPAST

The term IC50 denotes the point on the concentration scale where inhibition reaches its midpoint. The low end stands for higher potency, the high end for lower potency. Usually MIC stands for the smallest concentration in the dilution series that meets the test's criterion for growth inhibition. Turning to `CCOC(=O)c1sc2c(c1C)c(=O)n(C(C)(C)C(=O)NC(C)C)c(=O)n2C[C@H](OCC(C)(C)C#N)c1ccccc1OC` [Compound I-38, ethyl (R)-1-(2-(2-cyano-2-methylpropoxy)-2-(2-methoxyphenyl)ethyl)-3-(1-(isopropylamino)-2-methyl-1-oxopropan-2-yl)-5-methyl-2,4-dioxo-1,2,3,4-tetrahydrothieno[2,3-d]pyrimidine-6-carboxylate], the IC50 against fACC2 fell in the range of 0.0003 to 0.003 µM; on hACC2, 0.01 to 0.04 µM. Moreover, the MIC in the assay with C. krusei ATCC 6258 is > 4.1 µg/mL.

Regarding `CCNC(=O)C(C)(C)n1c(=O)c2c(C)c(C(=O)OCC)sc2n(C[C@H](O)c2cc(F)ccc2OC)c1=O` [Compound I-39, ethyl (R)-3-(1-(ethylamino)-2-methyl-1-oxopropan-2-yl)-1-(2-(5-fluoro-2-methoxyphenyl)-2-hydroxyethyl)-5-methyl-2,4-dioxo-1,2,3,4-tetrahydrothieno[2,3-d]pyrimidine-6-carboxylate], the results for the IC50 on fACC2 and on hACC2 were 0.0003 to 0.003 µM and 0.01 to 0.04 µM, respectively. The compound also gave an MIC against C. krusei ATCC 6258 of 0.25 to 1 µg/mL (≈ 0.467 to 1.87 µM).

Take `CCOC(=O)c1sc2c(c1C)c(=O)n(C(C)(C)C(=O)NC(C)C)c(=O)n2CCc1cc(F)ccc1OC` [Compound I-40, ethyl 1-(5-fluoro-2-methoxyphenethyl)-3-(1-(isopropylamino)-2-methyl-1-oxopropan-2-yl)-5-methyl-2,4-dioxo-1,2,3,4-tetrahydrothieno[2,3-d]pyrimidine-6-carboxylate]: the half-inhibitory concentration (IC50) on fACC2 lay within 0.003 to 0.01 µM; against hACC2 it was 0.01 to 0.04 µM. Also, in the assay on C. krusei ATCC 6258, the minimum inhibitory concentration (MIC) is 2.1 to 4 µg/mL (≈ 3.94 to 7.5 µM).

In the case of `CCNC(=O)[C@@H](C)n1c(=O)c2c(C)c(C(=O)OCC)sc2n(C[C@H](OCCC#N)c2cc(F)ccc2OC)c1=O` [Compound I-41, ethyl 1-((R)-2-(2-cyanoethoxy)-2-(5-fluoro-2-methoxy-phenyl)ethyl)-3-((R)-1-(ethylamino)-1-oxopropan-2-yl)-5-methyl-2,4-dioxo-1,2,3,4-tetrahydrothieno[2,3-d]pyrimidine-6-carboxylate], the half-inhibitory concentration (IC50) against fACC2 lay in the range of 0.0003 to 0.003 µM; against hACC2 it was 0.01 to 0.04 µM. In addition, in the assay with C. krusei ATCC 6258, the MIC was in the range of 2.1 to 4 µg/mL (≈ 3.65 to 6.96 µM).

Take `CCNC(=O)[C@H](C)n1c(=O)c2c(C)c(C(=O)OCC)sc2n(C[C@H](OCCC#N)c2cc(F)ccc2OC)c1=O` [Compound I-42, ethyl 1-((R)-2-(2-cyanoethoxy)-2-(5-fluoro-2-methoxyphenyl)ethyl)-3-((S)-1-(ethylamino)-1-oxopropan-2-yl)-5-methyl-2,4-dioxo-1,2,3,4-tetrahydrothieno[2,3-d]pyrimidine-6-carboxylate]: the IC50 against fACC2 is 0.0003 to 0.003 µM; against hACC2, 0.003 to 0.01 µM. This compound returned an MIC in the assay with C. krusei ATCC 6258 of 2.1 to 4 µg/mL (≈ 3.65 to 6.96 µM).

In the case of `CCOC(=O)c1sc2c(c1C)c(=O)n([C@H](C)C(=O)NC(C)C)c(=O)n2C[C@H](O)c1cc(F)ccc1OC` [Compound I-43, ethyl 1-((R)-2-(5-fluoro-2-methoxyphenyl)-2-hydroxyethyl)-3-((R)-1-(isopropylamino)-1-oxopropan-2-yl)-5-methyl-2,4-dioxo-1,2,3,4-tetrahydrothieno[2,3-d]pyrimidine-6-carboxylate], the IC50 was 0.0003 to 0.003 µM against fACC2 and ≥ 0.04 µM on hACC2. In the assay with C. krusei ATCC 6258, the MIC lay in the range of 2.1 to 4 µg/mL (≈ 3.92 to 7.47 µM).

Turning to `CCOC(=O)c1sc2c(c1C)c(=O)n([C@@H](C)C(=O)NC(C)C)c(=O)n2C[C@H](O)c1cc(F)ccc1OC` [Compound I-44, ethyl 1-((R)-2-(5-fluoro-2-methoxyphenyl)-2-hydroxyethyl)-3-((S)-1-(isopropylamino)-1-oxopropan-2-yl)-5-methyl-2,4-dioxo-1,2,3,4-tetrahydrothieno[2,3-d]pyrimidine-6-carboxylate], the IC50 against fACC2 was 0.01 to 0.04 µM; at hACC2, ≥ 0.04 µM. Besides, the MIC in the assay with C. krusei ATCC 6258 lay in the range of 2.1 to 4 µg/mL (≈ 3.92 to 7.47 µM).
